The values below come from US8168821B2, “Cyclopropylacetic acid derivatives and use thereof” (Bayer Pharma Aktiengesellschaft, priority 2005, dated 2012).

Test [1] addresses T1, Heme-containing sGC (recombinant soluble guanylate cyclase) (Rattus norvegicus, UniProt P20595).
T1 construct: made in house
T1 sequence (P20595 1-619): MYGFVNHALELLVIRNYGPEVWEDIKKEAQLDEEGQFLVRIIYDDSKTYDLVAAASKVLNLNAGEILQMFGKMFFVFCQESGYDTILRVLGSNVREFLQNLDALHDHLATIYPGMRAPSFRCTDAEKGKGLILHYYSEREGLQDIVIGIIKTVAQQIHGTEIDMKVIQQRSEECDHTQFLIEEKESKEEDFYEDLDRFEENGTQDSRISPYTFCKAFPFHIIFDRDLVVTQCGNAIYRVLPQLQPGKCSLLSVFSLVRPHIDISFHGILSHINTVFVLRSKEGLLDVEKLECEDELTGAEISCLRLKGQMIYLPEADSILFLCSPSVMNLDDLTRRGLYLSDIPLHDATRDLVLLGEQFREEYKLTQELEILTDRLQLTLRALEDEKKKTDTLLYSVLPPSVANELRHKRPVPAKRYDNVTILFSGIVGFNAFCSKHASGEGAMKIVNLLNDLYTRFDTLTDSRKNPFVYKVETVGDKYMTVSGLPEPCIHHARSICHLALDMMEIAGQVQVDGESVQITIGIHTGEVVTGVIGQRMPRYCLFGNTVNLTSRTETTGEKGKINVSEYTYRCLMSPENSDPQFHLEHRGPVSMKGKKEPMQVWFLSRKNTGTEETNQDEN
T1 sequence (P19686 1-690 partner): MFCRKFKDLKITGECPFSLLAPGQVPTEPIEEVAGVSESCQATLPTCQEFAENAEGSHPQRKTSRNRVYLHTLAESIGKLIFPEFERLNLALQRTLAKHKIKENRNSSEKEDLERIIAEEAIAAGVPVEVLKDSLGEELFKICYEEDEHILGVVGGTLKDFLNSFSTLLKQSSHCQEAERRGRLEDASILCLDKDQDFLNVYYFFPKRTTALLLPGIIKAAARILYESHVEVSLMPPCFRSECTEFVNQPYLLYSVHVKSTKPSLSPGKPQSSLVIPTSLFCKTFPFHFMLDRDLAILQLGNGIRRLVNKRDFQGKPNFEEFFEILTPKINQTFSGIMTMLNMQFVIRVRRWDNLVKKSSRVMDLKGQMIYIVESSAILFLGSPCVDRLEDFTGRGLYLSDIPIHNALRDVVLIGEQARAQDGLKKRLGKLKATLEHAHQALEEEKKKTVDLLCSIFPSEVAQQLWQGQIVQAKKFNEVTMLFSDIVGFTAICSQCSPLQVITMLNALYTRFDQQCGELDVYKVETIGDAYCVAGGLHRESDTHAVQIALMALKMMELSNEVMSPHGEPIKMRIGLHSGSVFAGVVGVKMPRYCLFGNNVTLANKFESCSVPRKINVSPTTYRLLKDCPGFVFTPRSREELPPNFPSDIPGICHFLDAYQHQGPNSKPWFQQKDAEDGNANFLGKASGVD
In words: Stimulation of recombinant soluble guanylate cyclase (sGC) in vitro, heme-containing enzyme. Format: biochemical. An excerpt: Hoenicka, E. M. Becker, H. Apeler, T. Sirichoke, H. Schroeder, R. Gerzer and J.-P. Stasch, “Purified soluble guanylyl cyclase expressed in a baculovirus/Sf9 system: Stimulation by YC-1, nitric oxide, and carbon oxide”, J. Mol. Med. 77 (1999), 14-23. The heme-free guanylate cyclase is obtained by adding Tween 20 to the sample buffer (0.5% in the final concentration).
(§1) The activation of sGC by a test substance is reported as n-fold stimulation of the basal activity.

Another test has as its system saphenous artery rings. As to the kind of experiment: Vasorelaxant effect in vitro (phenylephrine-contracted artery rings). The conditions noted are these: rabbit saphenous artery rings, contraction induced by phenylephrine, concentration reducing contraction by 50%. Details: species or system Rabbits. As for the experimental part: Rabbits are anesthetized and sacrificed by intravenous injection of thiopental sodium (about 50 mg/kg) and exsanguinated. The saphenous artery is removed and divided into rings 3 mm wide. The rings are mounted singly on in each case a pair of triangular hooks open at the end and made of 0.3 mm-thick special wire (Remanium®). Each ring is placed under an initial tension in 5 ml organ baths with Krebs-Henseleit solution which is at 37° C., is gassed with carbogen and has the following composition: NaCl 119 mM; KCl 4.8 mM; CaCl2×2H2O 1 mM; MgSO4×7H2O 1.4 mM; KH2PO4 1.2 mM; NaHCO3 25 mM; glucose 10 mM; bovine serum albumin 0.001%. The force of contraction is detected with Statham UC2 cells, amplified and digitized via A/D converters (DAS-1802 HC, Keithley Instruments, Munich) and recorded in parallel on chart recorders. Contractions are induced by addition of phenylephrine.
After several (generally 4) control cycles, the substance to be investigated is added in each further run in increasing dosage, and the height of the contraction achieved under the influence of the test substance is compared with the height of the contraction reached in the last preceding run. The concentration necessary to reduce the contraction reached in the preceding control by 50% is calculated from this (IC50). The standard application volume is 5 μl. The proportion of DMSO in the bath solution corresponds to 0.1%.

For test [2], the target named is T2, Heme-free sGC (recombinant soluble guanylate cyclase) (Rattus norvegicus, UniProt P20595).
T2 construct: made in house
T2 sequence (P20595 1-619): T1 sequence (P20595 1-619)
T2 sequence (P19686 1-690 partner): T1 sequence (P19686 1-690 partner)
In words: Stimulation of recombinant soluble guanylate cyclase (sGC) in vitro, heme-free enzyme. Format: biochemical. The conditions noted are these: 10 μM Example 9; heme-free enzyme obtained with 0.5% Tween 20. As for the experimental part:
Investigations on the stimulation of recombinant soluble guanylate cyclase (sGC) by the compounds according to the invention with and without sodium nitroprusside, and with and without the heme-dependent sGC inhibitor 1H-1,2,4-oxadiazole-(4,3a)-quinoxalin-1-one (ODQ) are carried out by the method described in detail in the following reference: M. Hoenicka, E. M. Becker, H. Apeler, T. Sirichoke, H. Schroeder, R. Gerzer and J.-P. Stasch, “Purified soluble guanylyl cyclase expressed in a baculovirus/Sf9 system: Stimulation by YC-1, nitric oxide, and […]”, J. Mol. Med. 77 (1999), 14-23. The heme-free guanylate cyclase is obtained by adding Tween 20 to the sample buffer (0.5% in the final concentration).
as §1

As for `CCN(CC)[N+]([O-])=NO` [DEA/NO, 2-(N,N-diethylamino)diazenolate 2-oxide, reference compound], the “Stimulation (n-fold) of heme-containing sGC by DEA/NO alone” value in test [1] (0.1 μM DEA/NO, 0.0 μM Example 9) is listed as 101.0 n-fold. In the test with saphenous artery rings, `O=C(O)CC1(CCC(/C=C/c2ccccc2OCCCCCc2ccccc2)Cc2ccc(C(=O)O)cc2)CC1` (racemic) [Example 9, 4-((3E)-2-{2-[1-(Carboxymethyl)cyclopropyl]ethyl}-4-{2-[(5-phenylpentyl)oxy]phenyl}but-3-en-1-yl)benzoic acid] registered an IC50 of 406 nM. Besides, the “Stimulation (n-fold) of heme-containing sGC, Basal” value in test [1] (10 μM Example 9, no addition) was 8.0 n-fold. The “Stimulation (n-fold) of heme-containing sGC, +0.1 μM DEA/NO” value in test [1] (10 μM Example 9 plus 0.1 μM DEA/NO) is given as 109.2 n-fold. Further, in test [1] (10 μM Example 9 plus 10 μM ODQ), the “Stimulation (n-fold) of heme-containing sGC, +10 μM ODQ” value amounted to 41.0 n-fold. In addition, the “Synergism of combination with NO donor DEA/NO on heme-containing sGC” value in test [1] (combination of Example 9 and DEA/NO) is “no synergistic effect”. The “Effect of heme-dependent sGC inhibitor ODQ on sGC activation” value in test [1] (with ODQ) is “not blocked”. In addition, in test [2], the “Stimulation (n-fold) of heme-free sGC, Basal” value was determined as 21.0 n-fold. Consider `O=C(O)CC1(CCC(/C=C/c2ccccc2OCCCCCc2ccccc2)Cc2ccc(C(=O)O)cc2)CC1` (racemic) [Example 8, 4-((3E)-2-{2-[1-(Carboxymethyl)cyclopropyl]ethyl}-4-{2-[(5-phenylpentyl)oxy]phenyl}but-3-en-1-yl)benzoic acid], for which the IC50 with saphenous artery rings was determined as 1020 nM.

For `O=c1onc2cnc3ccccc3n12` [ODQ, 1H-1,2,4-oxadiazole-(4,3a)-quinoxalin-1-one, reference compound], the “Stimulation (n-fold) of heme-containing sGC with ODQ alone” value in test [1] (10 μM ODQ, 0.0 μM Example 9) was found to be 3.7 n-fold. Compound `CC(C)(C)c1ccc(COc2ccccc2/C=C/C(CCC2(CC(=O)O)CC2)Cc2ccc(C(=O)O)cc2)cc1` (racemic) [Example 6, 4-((3E)-4-{2-[(4-tert-Butylbenzyl)oxy]phenyl}-2-{2-[1-(carboxymethyl)cyclopropyl]ethyl}but-3-en-1-yl)benzoic acid] yielded an IC50 with saphenous artery rings of 33 nM. In other words, the double-digit nanomolar range. In the test on saphenous artery rings (Oryctolagus cuniculus), `CC(C)(C)c1ccc(COc2ccccc2/C=C/C(CCc2ccc(C(=O)O)cc2)CCC2(CC(=O)O)CC2)cc1` (racemic) [Example 2, 4-((4E)-5-{2-[(4-tert-Butylbenzyl)oxy]phenyl}-3-{2-[1-(carboxymethyl)cyclopropyl]ethyl}pent-4-en-1-yl)benzoic acid] showed an IC50 of 2.9 nM.

With `CC(C)(C)c1ccc(COc2ccccc2/C=C/C(CCc2ccc(C(=O)O)cc2)CCC2(CC(=O)O)CC2)cc1` (racemic) [Example 3, 4-((4E)-5-{2-[(4-tert-Butylbenzyl)oxy]phenyl}-3-{2-[1-(carboxymethyl)cyclopropyl]ethyl}pent-4-en-1-yl)benzoic acid], in the test on saphenous artery rings, the IC50 was determined as 5.8 nM.

Turning to `CC(C)(C)c1ccc(COc2ccccc2/C=C/C(CCC2(CC(=O)O)CC2)Cc2ccc(C(=O)O)cc2)cc1` (racemic) [Example 5], the IC50 in the test on saphenous artery rings (Oryctolagus cuniculus) worked out at 58 nM.

By IC50 is commonly meant the concentration at which inhibition is half-maximal. High values mean weaker potency in that assay, low ones greater potency in that assay.
